Converted amounts (≈) assume the structure as drawn.
Experiment: Effect of polymer modification on drug solubility: maximum solubility in water at room temperature, compound added step-wise
Type: physicochemical
Settings: unmodified base drug
Protocol: The polymer-modified compound was added step-wise to water to determine the maximum solubility at room temperature.

## O=C(O)c1ccccc1O [Salicylic Acid, salicylic acid]
  Solubility of Drug: 16 mM
water
  solubility: 2200 µg/mL (≈ 15.9 mM)

Source: patent publication US8431113B2, “Polymer conjugates” (Biocompatibles UK Limited, priority 2002, dated 2013)
